In patent publication US5151442A, “Chroman derivative active on the central nervous system, their method of preparation and pharmaceutical compositions in which they are present” (Sanofi, priority 1988, dated 1992):
Structures can show the parent of a compound that is named as a salt.

Test system: Female mice (Iffa Credo)
Experiment: forced swimming test according to Porsolt et al. (immobility times over 4 minutes, 2nd to 6th minute)
Type: in vivo
Conditions: Mus musculus, ip, read-out: % inhibition (of the immobility times compared with control animals); for inhibition in vivo at 0.06 mg/kg: 0.06 mg/kg i.p.; for inhibition in vivo at 0.25 mg/kg: 0.25 mg/kg i.p.; for inhibition in vivo at 0.125 mg/kg: 0.125 mg/kg i.p.
Procedure: Thus the products according to the invention were subjected to the forced swimming test according to Porsolt et al. (Archives Internationales de Pharmacodynamie, 1977, 229, 327-336). Female mice (Iffa Credo) weighing 22-24 g are immersed for a period of 6 minutes in a beaker containing 800 ml of water at 24°±1° C. The immobility times are measured over 4 minutes from the 2nd to the 6th minute. The results are expressed as the percentage inhibition of the immobility times of the treated animals compared with the control animals.

Structure (SMILES) | inhibition in vivo at 0.06 mg/kg [%] | inhibition in vivo at 0.25 mg/kg [%] | inhibition in vivo at 0.125 mg/kg [%] | inhibition in vivo at 1 mg/kg (1 mg/kg i.p.) [%]
CC1(C)Oc2ccc(C#N)cc2[C@@H](Nc2ccc(Cl)cc2)[C@@H]1O (relative stereo) [SR 44546, Trans-4-(4-chloroanilino)-6-cyano-2,2-dimethyl-3-hydroxychroman] | 16 | 44 | – | –
COC(=O)c1ccccc1N[C@@H]1c2cc(C#N)ccc2OC(C)(C)[C@H]1O (relative stereo) [SR 44588, Trans-6-cyano-2,2-dimethyl-3-hydroxy-4-(2-methoxycarbonylanilino)chroman] | 20 | – | 27 | –
CN(C)CCS[C@@H]1c2cc(C#N)ccc2OC(C)(C)[C@H]1O (relative stereo) [SR 44652, Trans-6-cyano-2,2-dimethyl-4-(2-dimethylaminoethylthio)-3-hydroxychroman hydrochloride] | 25 | – | 27 | –
CC1(C)Oc2ccc(C#N)cc2[C@@H](NS(=O)(=O)c2ccccc2C(F)(F)F)[C@@H]1O (relative stereo) [SR 44665, Trans-6-cyano-2,2-dimethyl-3-hydroxy-4-(2-trifluoromethylbenzene-1-sulfonamido)chroman] | 24 | – | – | –
CN(C)S(=O)(=O)N[C@@H]1c2cc(C#N)ccc2OC(C)(C)[C@H]1O (relative stereo) [SR 44666, Trans-6-cyano-2,2-dimethyl-4-(N,N-dimethylsulfamoylamino)-3-hydroxychroman] | 21 | – | – | 23
CC1(C)Oc2ccc(C#N)cc2[C@@H](S(=O)(=O)C2CCCCC2)[C@@H]1O (relative stereo) [SR 44708, Trans-6-cyano-4-cyclohexylsulfonyl-2,2-dimethyl-3-hydroxychroman] | 21 | 37 | – | –
CC1(C)Oc2ccc(C#N)cc2[C@@H](Nc2ccccc2)[C@@H]1O (relative stereo) [SR 46142 A] | 40 | – | – | –
CC1(C)Oc2ccc(C#N)cc2[C@@H](Nc2ccc(F)cc2)[C@@H]1O (relative stereo) [SR 46143] | 27 | – | – | –
CC1(C)Oc2ccc(C#N)cc2[C@@H](Nc2ccc(C(F)(F)F)cc2)[C@@H]1O (relative stereo) [SR 46276] | 40 | – | – | –
CC1(C)C=C(Sc2ccc(Cl)cc2)c2cc(C#N)ccc2O1 [SR 44554, 4-(4-Chlorophenylthio)-6-cyano-2,2-dimethyl-2H-chromene] | 33 | – | – | –
